Test results published in patent US9550763B2, “Heterocyclic ring and carbocyclic derivative” (Shionogi & Co., Ltd., priority 2012, dated 2017).

target: human P2X3 receptor (Homo sapiens (Human), UniProt P56373); experiment: Evaluation of human P2X3 receptor inhibitory activity (Test Example 1-1, FDSS 3000, 96-well, 50 nM ATP); format: cell-based; details: human P2X3 receptor in C6BU-1 cells; Test Example 1-1 (compounds I-001 to I-300)
Procedure: Stably expressing cell line (C6BU-1 cell transfected with human P2X3 receptor gene (GenBank accession number Y07683) was used. The cells were seeded in a 96-well microtiter plate at a concentration of 8000 cells/well and cultured in the medium (7.0% fetal bovine serum, 7.0% horse serum, 1% antibiotic and antifungal in DMEM) for one day at 37° C. under 5% carbon dioxide atmosphere. The medium was replaced with 4 μM Fluo-3-AM solution (20 mM HEPES, 137 mM NaCl, 5.27 mM KCl, 0.9 mM MgCl2, 1.26 mM CaCl2, 5.6 mM D-glucose, 2.5 mM probenecid, 1% BSA, and 0.08% Pluronic F-127, pH 7.5) and incubated at 37° C. under 5% dioxide carbon atmosphere for one hour. The plate was washed with washing buffer (20 mM HEPES, 137 mM NaCl, 5.27 mM KCl, 0.9 mM MgCl2, 1.26 mM CaCl2, 5.6 mM D-glucose, 2.5 mM probenecid, pH7.5), and each well was added with 40 μL of this buffer. The plate was placed in High-Throughput Screening System. FDSS 3000 (Hamamatsu Photonics K.K.). Measurement of fluorescence intensity by FDSS 3000 was started, and 40 μL of DMSO solutions containing different concentrations of the test compound as prepared by dilution with dilution buffer (20 mM HEPES, 137 mM NaCl, 5.27 mM KCl, 0.9 mM MgCl2, 1.26 mM CaCl2, 5.68 mM D-glucose, 2.5 mM probenecid, 0.1% Pluronic F-127, pH7.5) were dispensed to each well through the built-in automatic dispenser. Five minutes after, 50 nM ATP solution (50 μL) prepared by dilution with the dilution buffer was dispensed through the built-in automatic dispenser, and the measurement of fluorescence intensity was continued for 4 min. For each well, the specific maximum fluorescence intensity was calculated as the ratio of the maximum fluorescence intensity after addition of the ATP solution to the fluorescence intensity at the starting of the measurement. The 50% inhibitory concentration (IC50) was calculated under the assumption that the specific maximum fluorescence intensity without test compound is 0% inhibition and that the specific maximum fluorescence intensity when the dilution buffer was added in place of ATP solution is 100% inhibition, to evaluate the inhibitory activity of the test compound. FDSS software (Hamamatsu Photonics K.K.) was used for calculation of the specific maximum fluorescence intensity. IC50 was calculated using Microsoft Excel (Microsoft Corporation) and XLfit (idbs Ltd.)
The data of the compounds I-001 to I-300 are the results by the method mentioned in Test Example 1-1, and the data of the compounds I-301 to I-483 are the results by the method mentioned in Test Example 1-2.

Chain of human P2X3 receptor (P56373 whole entry): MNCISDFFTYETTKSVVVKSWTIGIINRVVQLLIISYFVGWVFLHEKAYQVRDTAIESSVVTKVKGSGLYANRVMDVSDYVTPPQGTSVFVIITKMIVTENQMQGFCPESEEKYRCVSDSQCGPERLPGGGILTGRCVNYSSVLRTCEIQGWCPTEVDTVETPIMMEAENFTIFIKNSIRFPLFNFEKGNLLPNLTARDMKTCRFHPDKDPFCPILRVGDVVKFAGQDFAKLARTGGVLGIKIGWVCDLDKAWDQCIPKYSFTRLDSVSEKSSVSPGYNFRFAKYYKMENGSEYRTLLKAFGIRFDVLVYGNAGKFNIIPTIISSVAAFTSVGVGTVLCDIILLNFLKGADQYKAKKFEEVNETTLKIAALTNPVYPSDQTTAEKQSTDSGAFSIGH

Row | SMILES | IC50 [nM]
1 | CCOC(=O)c1cnc(Oc2ccc(Nc3cc(=O)n(CC)c(=O)n3Cc3ccc(Cl)cc3)cc2)s1 [Compound I-010] | 4
2 | CCn1c(=O)cc(Nc2ccc(Oc3cccc(C(N)=O)n3)c(F)c2)n(Cc2ccc(Cl)cc2)c1=O [Compound I-026] | 3
3 | CCCn1c(=O)cc(Nc2ccc(Oc3cccc(C#N)n3)cc2)n(Cc2ccc(Cl)cc2)c1=O [Compound I-164] | 10
4 | O=C(Nc1c[nH]/c(=N\c2ccc(Oc3ccon3)cc2)n(Cc2ccc(Cl)cc2)c1=O)C1CC(F)(F)C1 [Compound I-211] | 15
5 | Cc1nocc1C(=O)Nc1c[nH]/c(=N\c2ccc(Oc3ccon3)cc2)n(Cc2ccc(Cl)cc2)c1=O [Compound I-264] | 15
6 | CCC(=O)Nc1c[nH]/c(=N\c2ccc(Oc3ccc(C(=O)OC)nc3)cc2)n(Cc2ccc(Cl)cc2)c1=O [Compound I-091] | 3
7 | CCOC(=O)c1cccc(Oc2ccc(Nc3cc(=O)n(CC)c(=O)n3Cc3ccc(Cl)cc3)cn2)c1 [Compound I-060] | 160
8 | CCc1oc2ccc(/N=c3\[nH]cc(C=NOC)c(=O)n3Cc3ccc(Cl)cc3)cc2c1C [Compound I-058] | 223
9 | N#Cc1c[nH]/c(=N\c2ccc(Oc3ccc(F)cn3)cc2)n(Cc2ccc(Cl)cc2)c1=O [Compound I-261] | 498
10 | CCc1oc2ccc(Nc3ncc(NC(=O)C4CCOCC4)c(=O)n3CC3CCCCC3)cc2c1C [Compound I-080] | 20
11 | CCc1oc2ccc(/N=c3\[nH]cc(C=NN4CCOCC4)c(=O)n3Cc3ccc(Cl)cc3)cc2c1C [Compound I-048] | 22
12 | O=C(NCCO)c1c[nH]/c(=N\c2ccc(Oc3ncccc3F)cc2)n(Cc2ccc(Cl)cc2)c1=O [Compound I-111] | 22
13 | NC(=O)c1c[nH]/c(=N\c2ccc(Oc3ncccc3F)cc2)n(Cc2ccc(Cl)cc2)c1=O [Compound I-110] | 27
14 | O=C(O)c1c[nH]/c(=N\c2ccc(Oc3ccon3)cc2)n(Cc2ccc(Cl)cc2)c1=O [Compound I-099] | 534
15 | NC(=O)c1cccc(Oc2ccc(Nc3ncc(NC(=O)C4CCOCC4)c(=O)n3Cc3ccc(Cl)cc3)cc2)n1 [Compound I-038] | 2
16 | CC(c1ccc(Cl)cc1)n1cc(C(=O)NC2CCOCC2)c(=O)nc1Nc1ccc(Oc2cccc(F)n2)cc1 (stereo not drawn) [Compound I-270] | 175
17 | COc1cccc(Oc2ccc(/N=c3\[nH]cc(C(N)=O)c(=O)n3Cc3ccc(Cl)cc3)cc2C)n1 [Compound I-140] | 99
18 | CCOC(=O)c1c[nH]/c(=N\c2ccc(Oc3ccon3)cc2)n(Cc2ccc(Cl)cc2)c1=O [Compound I-096] | 64
19 | CCCn1c(=O)cc(Nc2ccc(Oc3cccc(C(=O)OC)c3)cc2)n(Cc2ccc(Cl)cc2)c1=O [Compound I-168] | 159

Row | SMILES | IC50 [nM]
20 | O=C(Nc1cnc(Nc2ccc(Oc3ccon3)cc2)n(Cc2ccc(Cl)cc2)c1=O)C1CCOCC1 [Compound I-086] | 2
21 | CCCn1c(=O)cc(Nc2ccc(Oc3cccc(C#N)c3)c(C)n2)n(Cc2ccc(Cl)cc2)c1=O [Compound I-247] | 96
22 | C[C@@H](Cn1c(=O)cc(Nc2ccc(Oc3cccc(F)n3)cc2)n(Cc2ccc(Cl)cc2)c1=O)C(=O)O [Compound I-120] | 6
23 | CCCn1c(=O)cc(Nc2ccc(Oc3cccc(C#N)n3)c(C)n2)n(Cc2ccc(Cl)cc2)c1=O [Compound I-187] | 4
24 | CCn1c(=O)cc(Nc2ccc(Oc3ccc(C(=O)OC)nn3)cc2)n(Cc2ccc(Cl)cc2)c1=O [Compound I-173] | 4
25 | CN(C)C(=O)CNC(=O)c1cn(Cc2ccc(Cl)cc2)c(Nc2ccc(Oc3ccc(F)cn3)cc2)nc1=O [Compound I-297] | 21
26 | COC(=O)[C@@H](C)Cn1c(=O)cc(Nc2ccc(Oc3ccccc3)cc2)n(Cc2ccc(Cl)cc2)c1=O [Compound I-113] | 187
27 | CCc1oc2ccc(Nc3ncc(NC(=O)C4CCOCC4)c(=O)n3Cc3cccc(Cl)c3)cc2c1C [Compound I-078] | 20
28 | Cc1nsc(Oc2ccc(/N=c3\[nH]cc(C(=O)N(C)C)c(=O)n3Cc3ccc(Cl)cc3)cc2)n1 [Compound I-221] | 65
29 | CCc1c[nH]/c(=N\c2ccc(Oc3cccc(C(=O)O)n3)cc2)n(Cc2ccc(Cl)cc2)c1=O [Compound I-144] | 35
30 | CCC(=O)Nc1c[nH]/c(=N\c2ccc(Oc3cnc(C(=O)O)cn3)cc2)n(Cc2ccc(Cl)cc2)c1=O [Compound I-094] | 10
31 | CCOC(=O)c1cnc(Oc2ccc(Nc3ncc(C(=O)OCC)c(=O)n3Cc3ccc(Cl)cc3)cc2)s1 [Compound I-056] | 13
32 | N#Cc1ccc(Oc2ccc(Nc3nc(=O)c(C(=O)NC4CCOCC4)cn3Cc3ccc(Cl)cc3)cc2)nc1 [Compound I-228] | 10
33 | O=C(Nc1c[nH]/c(=N\c2ccc(Oc3ccon3)cc2)n(Cc2ccc(Cl)cc2)c1=O)C1CCOC1 (stereo not drawn) [Compound I-192] | 6
34 | CCn1c(=O)cc(Nc2ccc(Oc3cccc(C(=O)O)c3)c(C)n2)n(Cc2ccc(Cl)cc2)c1=O [Compound I-258] | 27
35 | N#Cc1cccc(Oc2ccc(Nc3nc(=O)c(C(=O)NC4CCOCC4)cn3Cc3ccc(Cl)cc3)cc2)n1 [Compound I-216] | 6
36 | C[C@@H](Cn1c(=O)cc(Nc2ccc(Oc3ccccc3)cc2)n(Cc2ccc(Cl)cc2)c1=O)C(=O)O [Compound I-117] | 26
37 | CCC(=O)Nc1c[nH]/c(=N\c2ccc(Oc3ccnc(C#N)c3)cc2)n(Cc2ccc(Cl)cn2)c1=O [Compound I-276] | 165
38 | CCC(=O)N(CC)c1c[nH]/c(=N\c2ccc(Oc3cccc(C(=O)O)n3)cc2)n(Cc2ccc(Cl)cc2)c1=O [Compound I-193] | 6

Row | SMILES | IC50 [nM]
39 | O=C(Nc1c[nH]/c(=N\c2ccc(Oc3ccon3)cc2)n(Cc2ccc(Cl)cc2)c1=O)c1cccnc1 [Compound I-265] | 48
40 | CCc1oc2ccc(/N=c3\[nH]cc(CC(C)(C)O)c(=O)n3Cc3ccc(Cl)cc3)cc2c1C [Compound I-103] | 144
41 | O=C(Nc1c[nH]/c(=N\c2ccc(Oc3ccon3)cc2)n(Cc2ccc(Cl)cn2)c1=O)C1CCOCC1 [Compound I-275] | 51
42 | CC(=O)N(C)c1c[nH]/c(=N\c2ccc(Oc3cccc(C(=O)O)n3)cc2)n(Cc2ccc(Cl)cc2)c1=O [Compound I-210] | 17
43 | COC(=O)[C@@H](C)Cn1c(=O)cc(Nc2ccc(Oc3cccc(F)c3)c(C)n2)n(Cc2ccc(Cl)cc2)c1=O [Compound I-244] | 646
44 | O=C(Nc1c[nH]/c(=N\c2ccc(Oc3ccon3)cc2)n(Cc2ccc(F)cc2)c1=O)C1CCOCC1 [Compound I-123] | 24
45 | Cc1cc(Oc2ccc(/N=c3\[nH]cc(NC(=O)C4CCOCC4)c(=O)n3Cc3ccc(Cl)cc3)cc2F)no1 [Compound I-249] | 6
46 | N#Cc1ccc(Oc2ccc(Nc3nc(=O)c(C(=O)NC4CCOCC4)cn3Cc3ccc(Cl)cc3)cc2)cn1 [Compound I-229] | 7
47 | N#Cc1cc(Oc2ccc(Nc3nc(=O)c(C(=O)NC4CCOCC4)cn3Cc3ccc(Cl)cc3)cc2)ccn1 [Compound I-227] | 6
48 | O=C(Nc1c[nH]/c(=N\c2ccc(Oc3ccon3)cc2)n(Cc2ccc(Cl)cc2)c1=O)C1CCNCC1 [Compound I-186] | 72
49 | Cc1ccc(Oc2ccc(/N=c3\[nH]cc(C(N)=O)c(=O)n3Cc3ccc(Cl)cc3)cc2)nn1 [Compound I-180] | 21
50 | O=C(NC1CCOCC1)c1c[nH]/c(=N\c2ccc(Oc3cccc(F)n3)cc2)n(Cc2ccc(Cl)cc2)c1=O [Compound I-042] | 14
51 | CCC(=O)Nc1c[nH]/c(=N\c2ccc(Oc3ccnc(CO)c3)cc2)n(Cc2ccc(Cl)cc2)c1=O [Compound I-163] | 21
52 | C[C@@H](Cn1c(=O)cc(Nc2ccc(Oc3cccc(C#N)n3)c(F)c2)n(Cc2ccc(Cl)cc2)c1=O)C(=O)O [Compound I-127] | 3
53 | O=C(Nc1c[nH]/c(=N\c2ccc(Oc3ccon3)cc2)n(Cc2ccc(Cl)cc2)c1=O)c1cocn1 [Compound I-268] | 85
54 | CCC(=O)Nc1c[nH]/c(=N\c2ccc(Oc3ccnc(C(N)=O)c3)cc2)n(Cc2ccc(Cl)cn2)c1=O [Compound I-277] | 172
55 | CCOC(=O)c1cccc(Oc2ccc(Nc3cc(=O)n(CC)c(=O)n3Cc3ccc(Cl)cc3)nc2)c1 [Compound I-044] | 103
56 | COc1ccc(-c2c[nH]/c(=N\c3ccc(Oc4ccon4)cc3)n(Cc3ccc(Cl)cc3)c2=O)cn1 [Compound I-204] | 198
57 | NC(=O)c1c[nH]/c(=N\c2ccc(Oc3ccon3)cc2)n(Cc2ccc(Cl)cc2)c1=O [Compound I-100] | 32
